Results taken from patent US20110294901A1, “FINELY PULVERIZED PHARMACEUTICAL COMPOSITION” (priority 2009, published 2011).

Key:
[1] = Particle size measurement with a particle size distribution measuring device (Microtruck X100); type: physicochemical
Experimental: Preferably, the particles of the drug contained in the composition according to the present invention have a cumulative 50% particle diameter of not more than 1.5 μm and a cumulative 90% particle diameter of not more than 3.0 μm. More preferably, the cumulative 50% particle diameter and the cumulative 90% particle diameter are not more than 1.0 μm and not more than 2.0 μm, respectively. In the present invention, when a cumulative curve is determined by presuming the total volume of a powder population, of which the particle size distribution is analyzed, to be 100%, the particle diameter of a point at which the cumulative curve is 50% and the particle diameter of a point at which the cumulative curve is 90% are “cumulative 50% particle diameter” and “cumulative 90% particle diameter” (μm), respectively.
The diameters of drug particles obtained by the grinding can be measured by a laser diffraction/scattering-type particle size distribution measuring machine. Specifically, for example, Microtruck (tradename) sold by NIKKISO Co., Ltd. is preferred. […]
The cumulative 50% particle diameter of bulk drug particles in the fine granules in Examples 4 and 5 and Comparative Examples 3 to 5 was measured with a particle size distribution measuring device (manufacturer: NIKKISO Co., Ltd., model: Mircotruck X100).

[2] = Dissolution test (1), paddle method, 1% aqueous polysorbate 80; type: physicochemical; conditions: three hr after the start of the dissolution; 50 mg drug, 100 rpm, 900 mL 1% aqueous polysorbate 80
Experimental: A dissolution test was carried out for the suspension produced in Example 1 (grinding conditions 3) and a liquid obtained by suspending the ground bulk drug obtained in Comparative Example 1 in water.
Each of the suspensions in an amount corresponding to 50 mg of the 22β-methoxyolean-12-ene-3β,24(4β)-diol bulk drug was accurately weighed, and a test was carried out by a dissolution test method, second method (paddle method), specified in Japanese Pharmacopoeia, at a rotation speed of 100 rpm (rotation speed of paddle) using 900 mL of a 1% aqueous polysorbate 80 solution as a test solution. After 15 min, 30 min, 60 min, and 180 min from the start of dissolution, 5 mL of the test solution was collected and was filtered by a membrane filter having a pore diameter of 0.2 μm to give measurement samples. The samples were analyzed by high-performance liquid chromatography (manufacturer: Shimadzu Seisakusho Ltd., model:LC-10ATvp) to determine dissolution rate for each sample.

Compound	cumulative 50% particle diameter ([1]; bulk drug before grinding)	dissolution rate [2] [%]	cumulative 50% particle diameter of the ground bulk drug ([1]; ground with jet mill at 0.54 MPa, dispersed in 0.01% aqueous sodium laurylsulfate solution) [μm]
CO[C@@H]1CC(C)(C)C[C@H]2C3=CC[C@@H]4[C@@]5(C)CC[C@H](O)[C@](C)(CO)[C@@H]5CC[C@@]4(C)[C@]3(C)CC[C@@]12C [22β-methoxyolean-12-ene-3β,24(4β)-diol]	about 50 μm		
CO[C@@H]1CC(C)(C)C[C@H]2C3=CC[C@@H]4[C@@]5(C)CC[C@H](O)[C@](C)(CO)[C@@H]5CC[C@@]4(C)[C@]3(C)CC[C@@]12C [Comparative Example 1, 22β-Methoxyolean-12-ene-3β, 24(4β)-diol]		10	2.5
